Reference: ChEMBL document CHEMBL1177713, “Discovery of 3-[2-(imidazo[1,2-b]pyridazin-3-yl)ethynyl]-4-methyl-N-{4-[(4-methylpiperazin-1-yl)methyl]-3-(trifluoromethyl)phenyl}benzamide (AP24534), a potent, orally active pan-inhibitor of breakpoint cluster region-abelson (BCR-ABL) kinase including the T315I gatekeeper mutant” (J Med Chem, 2010)
Values belong to the compound of their own block, whether it stands above or below them.

Tests used:
BaF3 [1] = assay: cells; settings: Mus musculus, BaF3, 72 h
Description: Antiproliferative activity against mouse BA/F3 cells expressing wild type ABL after 3 days by MTS assay

BaF3 [2] = assay: cells; settings: Mus musculus, BaF3, 72 h; remark: listed apart in the source
Description: Antiproliferative activity against mouse BA/F3 cells after 3 days by MTS assay

BaF3 [3] = assay: cells; settings: Mus musculus, BaF3, 72 h; remark: listed apart in the source
Description: Antiproliferative activity against mouse BA/F3 cells expressing ABL T315I mutant after 3 days by MTS assay

[4] = Half life in CD rat at 15 mg/kg, po by LC-MS/MS analysis; assay type: ADME, organism-based; design: dose 15 mg/kg, route oral; settings: in vivo
Rattus norvegicus = assay: Dose normalized AUC (0 to 24 hrs) in CD rat at 15 mg/kg, po by LC-MS/MS analysis; assay type: ADME, organism-based; design: time < 24 hr, dose 15 mg/kg, route oral; settings: in vivo
[5] = AUC (0 to 24 hrs) in mouse at 30 mg/kg, po by LC-MS/MS analysis; settings: plasma
[6] = Half life in CD rat at 5 mg/kg, iv by LC-MS/MS analysis; assay type: ADME, organism-based; design: dose 5 mg/kg, route intravenous; settings: in vivo
[7] = Cmax in mouse at 30 mg/kg, po by LC-MS/MS analysis; settings: in vivo
[8] = Clearance in CD rat at 5 mg/kg, iv by LC-MS/MS analysis; assay type: ADME, organism-based; design: dose 5 mg/kg, route intravenous; settings: in vivo
[9] = Half life in mouse at 30 mg/kg, po by LC-MS/MS analysis; settings: in vivo
[10] = Volume of distribution in CD rat at 5 mg/kg, iv by LC-MS/MS analysis; assay type: ADME, organism-based; design: dose 5 mg/kg, route intravenous; settings: in vivo
[11] = Cmax in CD rat at 15 mg/kg, po by LC-MS/MS analysis; assay type: ADME, organism-based; design: dose 15 mg/kg, route oral; settings: CD, in vivo
[12] = Tmax in CD rat at 15 mg/kg, po by LC-MS/MS analysis; assay type: ADME, organism-based; design: dose 15 mg/kg, route oral; settings: in vivo
[13] = Oral bioavailability in CD rat at 15 mg/kg by LC-MS/MS analysis; assay type: ADME, organism-based; settings: in vivo

Structure (SMILES): Cc1ccc(C(=O)Nc2cc(C(F)(F)F)ccn2)cc1C#Cn1cnc2c(NC3CC3)ncnc21
IC50 (BaF3 [1]): 2 nM
half-life [4]: 1.5 h
IC50 (BaF3 [3]): 548 nM
AUC (Rattus norvegicus): 11.8 ng·h/mL/mg/kg

Structure (SMILES): Cc1ccc(C(=O)Nc2cc(C(F)(F)F)on2)cc1/C=C/n1cnc2c(NC3CC3)ncnc21
IC50 (BaF3 [1]): 12 nM
IC50 (BaF3 [3]): 7120 nM

Structure (SMILES): Cc1ccc(C(=O)Nc2ccc(CN3CCN(C(C)C)CC3)c(C(F)(F)F)c2)cc1C#Cc1cnc2ccccn12
IC50 (BaF3 [1]): 8 nM
IC50 (BaF3 [2]): 1650 nM
IC50 (BaF3 [3]): 43 nM

Structure (SMILES): Cc1ccc(C(=O)Nc2ccc(CN3CCN(CCO)CC3)c(C(F)(F)F)c2)cc1C#Cc1cnc2ccccn12
IC50 (BaF3 [1]): 2.3 nM
IC50 (BaF3 [2]): 1960 nM
IC50 (BaF3 [3]): 42 nM

Structure (SMILES): Cc1ccc(C(=O)Nc2ccc(CN3CCN(CCF)CC3)c(C(F)(F)F)c2)cc1C#Cc1cnc2ccccn12
IC50 (BaF3 [1]): 4 nM
IC50 (BaF3 [2]): 971 nM
IC50 (BaF3 [3]): 166 nM

Structure (SMILES): Cc1ccc(C(=O)Nc2ccc(CN3CCN(C)CC3)c(C(F)(F)F)c2)cc1C#Cc1cnc2c(c1)OCC(=O)N2
IC50 (BaF3 [1]): 3 nM
IC50 (BaF3 [2]): 369 nM
IC50 (BaF3 [3]): 17 nM

Structure (SMILES): Cc1ccc(C(=O)Nc2ccc(CN3CCN(CCO)CC3)c(C(F)(F)F)c2)cc1C#Cc1cnc2cccnn12
AUC(0-t) at 24 h [5]: 13700 ng·h/mL
half-life [6]: 3.5 h
Cmax [7]: 1330 ng/mL
IC50 (BaF3 [1]): 1.5 nM
clearance [8]: 25.5 mL/min/kg
half-life [9]: 2.4 h
IC50 (BaF3 [2]): 1680 nM
Vd [10]: 7.7 L/kg
Cmax [11]: 164 ng/mL
half-life [4]: 3.4 h
IC50 (BaF3 [3]): 14 nM
AUC (Rattus norvegicus): 145.3 ng·h/mL/mg/kg
Tmax [12]: 4 h
bioavailability [13]: 22.3%

Structure (SMILES): Cc1ccc(C(=O)Nc2ccc(CN3CCN(C)CC3)c(C(F)(F)F)c2)cc1C#Cc1cnc2[nH]ccc2c1
half-life [6]: 10.9 h
IC50 (BaF3 [1]): 4.4 nM
clearance [8]: 20.8 mL/min/kg
IC50 (BaF3 [2]): 2020 nM
Vd [10]: 19.6 L/kg
Cmax [11]: 71 ng/mL
half-life [4]: 14.3 h
IC50 (BaF3 [3]): 14 nM
AUC (Rattus norvegicus): 119 ng·h/mL/mg/kg
Tmax [12]: 6 h
bioavailability [13]: 15%

Structure (SMILES): Cc1ccc(C(=O)Nc2ccc(CN3CCN(C)CC3)c(C(F)(F)F)c2)cc1C#Cc1cnc2nc[nH]c2c1
half-life [6]: 5.4 h
IC50 (BaF3 [1]): 3.4 nM
clearance [8]: 34 mL/min/kg
IC50 (BaF3 [2]): 890 nM
Vd [10]: 15.9 L/kg
Cmax [11]: 32.7 ng/mL
IC50 (BaF3 [3]): 42 nM
AUC (Rattus norvegicus; BLD = below limit of detection): BLD
Tmax [12]: 6 h

Structure (SMILES): Cc1ccc(C(=O)Nc2ccc(CN3CCN(C)CC3)c(Cl)c2)cc1C#Cc1cnc2cccnn12
IC50 (BaF3 [1]): 2.3 nM
IC50 (BaF3 [2]): 1920 nM
IC50 (BaF3 [3]): 210 nM

Structure (SMILES): Cc1ccc(C(=O)Nc2ccc(CN3CCN(C)CC3)c(C3CC3)c2)cc1C#Cc1cnc2cccnn12
IC50 (BaF3 [1]): 3.9 nM
IC50 (BaF3 [2]): 1870 nM
IC50 (BaF3 [3]): 256 nM

Structure (SMILES): Cc1ccc(C(=O)Nc2ccc(CN3CCN(C)CC3)c(C(F)(F)F)c2)cc1CCc1cnc2cccnn12
IC50 (BaF3 [1]): 4.3 nM
IC50 (BaF3 [2]): 6000 nM
IC50 (BaF3 [3]): 295 nM

Structure (SMILES): Cc1ccc(C(=O)Nc2ccc(CN3CCN(C)CC3)c(C(F)(F)F)c2)cc1/C=C/c1cnc2cccnn12
IC50 (BaF3 [1]): 7.9 nM
IC50 (BaF3 [2]): 3240 nM
IC50 (BaF3 [3]): 211 nM

Structure (SMILES): CN1CCN(Cc2ccc(NC(=O)c3cccc(C#Cc4cnc5cccnn45)c3)cc2C(F)(F)F)CC1
IC50 (BaF3 [1]): 2.3 nM
IC50 (BaF3 [2]): 4210 nM
IC50 (BaF3 [3]): 39 nM

Structure (SMILES): Cc1cn(-c2cc(NC(=O)c3ccc(C)c(/C=C/n4cnc5c(NC6CC6)ncnc54)c3)cc(C(F)(F)F)c2)cn1
IC50 (BaF3 [1]): 7.3 nM

Structure (SMILES): Cc1ccc(C(=O)Nc2cc(C(F)(F)F)ccn2)cc1/C=C/n1cnc2c(NC3CC3)ncnc21
IC50 (BaF3 [1]): 4.8 nM

Results, then the compound that gave them:

IC50 (BaF3 [1]): 8.4 nM
IC50 (BaF3 [2]): 1880 nM
IC50 (BaF3 [3]): 157 nM
Structure (SMILES): Cc1ccc(C(=O)Nc2ccc(CN3CCCN(C)CC3)c(C(F)(F)F)c2)cc1C#Cc1cnc2ccccn12

IC50 (BaF3 [1]): 3.4 nM
IC50 (BaF3 [2]): 1010 nM
IC50 (BaF3 [3]): 77 nM
Structure (SMILES): Cc1ccc(C(=O)Nc2ccc(OC3CCN(C)CC3)c(C(F)(F)F)c2)cc1C#Cc1cnc2ccccn12

IC50 (BaF3 [1]): 5.2 nM
IC50 (BaF3 [2]): 1950 nM
IC50 (BaF3 [3]): 49 nM
Structure (SMILES): CCN1CCN(Cc2ccc(NC(=O)c3ccc(C)c(C#Cc4cnc5ccccn45)c3)cc2C(F)(F)F)CC1

IC50 (BaF3 [1]): 3.5 nM
IC50 (BaF3 [2]): 2080 nM
IC50 (BaF3 [3]): 22 nM
Structure (SMILES): Cc1ccc(C(=O)Nc2ccc(CN3CCNCC3)c(C(F)(F)F)c2)cc1C#Cc1cnc2ccccn12

IC50 (BaF3 [1]): 9.5 nM
IC50 (BaF3 [2]): 3970 nM
IC50 (BaF3 [3]): 203 nM
Structure (SMILES): Cc1ccc(C(=O)Nc2ccc(CN3CCNC(C)C3)c(C(F)(F)F)c2)cc1C#Cc1cnc2ccccn12 (centres undefined)

IC50 (BaF3 [1]): 9.4 nM
IC50 (BaF3 [2]): 3540 nM
IC50 (BaF3 [3]): 135 nM
Structure (SMILES): Cc1ccc(C(=O)Nc2cc(-n3cnc(CN4CCCC4)c3)cc(C(F)(F)F)c2)cc1C#Cc1cnc2ccccn12

IC50 (BaF3 [1]): 11 nM
IC50 (BaF3 [2]): 7010 nM
IC50 (BaF3 [3]): 251 nM
Structure (SMILES): Cc1ccc(C(=O)Nc2cc(-n3ccnc3CN(C)C)cc(C(F)(F)F)c2)cc1C#Cc1cnc2ccccn12

IC50 (BaF3 [1]): 2 nM
IC50 (BaF3 [2]): 1800 nM
IC50 (BaF3 [3]): 50 nM
Structure (SMILES): Cc1ccc(NC(=O)c2ccc(CN3CCN(C)CC3)c(C(F)(F)F)c2)cc1C#Cc1cnc2ccccn12

IC50 (BaF3 [1]): 11 nM
IC50 (BaF3 [2]): 5380 nM
IC50 (BaF3 [3]): 232 nM
Structure (SMILES): Cc1ccc(C(=O)Nc2cc(CN3CCN(C)CC3)cc(C(F)(F)F)c2)cc1C#Cc1cnc2ccccn12

IC50 (BaF3 [1]): 2.1 nM
IC50 (BaF3 [2]): 7440 nM
IC50 (BaF3 [3]): 727 nM
Structure (SMILES): Cc1ccc(C(=O)Nc2ccc(CN3CCOCC3)c(C(F)(F)F)c2)cc1C#Cc1cnc2ccccn12

IC50 (BaF3 [1]): 5.4 nM
IC50 (BaF3 [2]): 812 nM
IC50 (BaF3 [3]): 58 nM
Structure (SMILES): Cc1ccc(C(=O)Nc2ccc(CN3CC[C@H](N(C)C)C3)c(C(F)(F)F)c2)cc1C#Cc1cnc2ccccn12

IC50 (BaF3 [1]): 10 nM
IC50 (BaF3 [2]): 1500 nM
IC50 (BaF3 [3]): 500 nM
Structure (SMILES): Cc1ccc(C(=O)Nc2ccc(CN3CCN(C)CC3)c(C(F)(F)F)c2)cc1C#Cc1cnc2ncccn12

AUC(0-t) at 24 h [5]: 2690 ng·h/mL
half-life [6]: 3.5 h
Cmax [7]: 521 ng/mL
IC50 (BaF3 [1]): 0.9 nM
clearance [8]: 48.3 mL/min/kg
half-life [9]: 2.7 h
IC50 (BaF3 [2]): 1290 nM
Vd [10]: 14.7 L/kg
Cmax [11]: 57.8 ng/mL
half-life [4]: 5 h
IC50 (BaF3 [3]): 13 nM
AUC (Rattus norvegicus): 57 ng·h/mL/mg/kg
Tmax [12]: 4 h
bioavailability [13]: 16.7%
Structure (SMILES): Cc1ccc(C(=O)Nc2ccc(CN3CCN(C)CC3)c(C(F)(F)F)c2)cc1C#Cc1cnc2cnccn12

half-life [6]: 15.8 h
IC50 (BaF3 [1]): 8.6 nM
clearance [8]: 6 mL/min/kg
IC50 (BaF3 [2]): 10000 nM
Vd [10]: 8.2 L/kg
Cmax [11]: 234 ng/mL
half-life [4]: 5.2 h
IC50 (BaF3 [3]): 72 nM
AUC (Rattus norvegicus): 151.9 ng·h/mL/mg/kg
Tmax [12]: 1 h
bioavailability [13]: 5.5%
Structure (SMILES): Cc1ccc(C(=O)Nc2cc(-n3ccnc3)cc(C(F)(F)F)c2)cc1C#Cc1cnc2c(N)cccn12

IC50 (BaF3 [1]): 11 nM
IC50 (BaF3 [2]): 7390 nM
IC50 (BaF3 [3]): 44 nM
Structure (SMILES): CC(=O)Nc1cccn2c(C#Cc3cc(C(=O)Nc4cc(-n5ccnc5)cc(C(F)(F)F)c4)ccc3C)cnc12

IC50 (BaF3 [1]): 10 nM
IC50 (BaF3 [2]): 10000 nM
IC50 (BaF3 [3]): 1130 nM
Structure (SMILES): Cc1ccc(C(=O)Nc2cccc(C(F)(F)F)c2)cc1C#Cc1cnc2cccnn12

IC50 (BaF3 [1]): 4 nM
IC50 (BaF3 [2]): 915 nM
IC50 (BaF3 [3]): 34 nM
Structure (SMILES): Cc1ccc(C(=O)Nc2ccc(CN3CCNCC3)c(C(F)(F)F)c2)cc1C#Cc1cnc2cccnn12

IC50 (BaF3 [1]): 4.2 nM
Structure (SMILES): Cc1ccc(C(=O)Nc2cc(-n3ccnc3)cc(C(F)(F)F)c2)cc1/C=C/n1cnc2c(NC3CC3)ncnc21

half-life [6]: 10.2 h
IC50 (BaF3 [1]): 1.2 nM
clearance [8]: 10.8 mL/min/kg
Vd [10]: 9.7 L/kg
half-life [4]: 11 h
IC50 (BaF3 [3]): 8.8 nM
AUC (Rattus norvegicus): 278.5 ng·h/mL/mg/kg
Tmax [12]: 6 h
bioavailability [13]: 18.2%
Structure (SMILES): Cc1ccc(C(=O)Nc2ccc(CN3CCN(C)CC3)c(C(F)(F)F)c2)cc1C#Cc1cnc2cccnn12 [PONATINIB]
